# Test system: 361931-004-R-J1-PDC multicell spheroid viability
# Assay: Anticancer human tumor 361931-004-R-J1-PDC patient-derived colon adenocarcinoma cell line growth inhibition [PI3K]
# Settings: for IC50: curve of first compound; for viability, T/C: stronger effect = lower value
# Method in brief: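 Complex 3D spheroids (cancer cells + endothelial HUVEC + mesenchymal stem cells); drug pairs of targeted agent x inavolisib/alpelisib/duvelisib/copanlisib; half-log series from ~Cmax, max 10 microM if Cmax unknown; endpoint viability.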
# [1] = second compound 0.0316 µM, first compound 0.0316 µM
# [2] = second compound 0.0316 µM, first compound 0.1 µM
# [3] = second compound 0.1 µM, first compound 0.0316 µM
# [4] = second compound 0.1 µM, first compound 0.1 µM
# [5] = second compound 0.316 µM, first compound 0.0316 µM
# [6] = second compound 0.316 µM, first compound 0.1 µM
# [7] = second compound 1 µM, first compound 0.0316 µM
# [8] = second compound 1 µM, first compound 0.1 µM
# [9] = second compound 3.16 µM, first compound 0.0316 µM
# [10] = second compound 3.16 µM, first compound 0.1 µM
# [11] = second compound 10 µM, first compound 0.0316 µM
# [12] = second compound 10 µM, first compound 0.1 µM
# 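Further: spheroids exposed to agents for seven days before readout.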
smiles,measurement,setting,value
CC(C)NCC(C(=O)N1CCN(c2ncnc3c2C(C)CC3O)CC1)c1ccc(Cl)cc1 (centres undefined) + CC(Nc1ncnc2nc[nH]c12)c1cc2cccc(Cl)c2c(=O)n1-c1ccccc1,IC50,second compound 0.0316 µM,3510 nM
same,IC50,second compound 0.1 µM,3260 nM
same,IC50,second compound 0.316 µM,2910 nM
same,IC50,second compound 1 µM,4190 nM
same,IC50,second compound 3.16 µM,2990 nM
same,IC50,second compound 10 µM,3190 nM
same,"viability, T/C",[1],99.7%
same,"viability, T/C",[2],97.3%
same,"viability, T/C","second compound 0.0316 µM, first compound 0.316 µM",99%
same,"viability, T/C","second compound 0.0316 µM, first compound 1 µM",78%
same,"viability, T/C","second compound 0.0316 µM, first compound 3.16 µM",52.6%
same,"viability, T/C","second compound 0.0316 µM, first compound 10 µM",34.3%
same,"viability, T/C",[3],104%
same,"viability, T/C",[4],99.3%
same,"viability, T/C","second compound 0.1 µM, first compound 0.316 µM",99.8%
same,"viability, T/C","second compound 0.1 µM, first compound 1 µM",81.3%
same,"viability, T/C","second compound 0.1 µM, first compound 3.16 µM",50.8%
same,"viability, T/C","second compound 0.1 µM, first compound 10 µM",31.7%
same,"viability, T/C",[5],101%
same,"viability, T/C",[6],104%
same,"viability, T/C","second compound 0.316 µM, first compound 0.316 µM",94%
same,"viability, T/C","second compound 0.316 µM, first compound 1 µM",79.1%
same,"viability, T/C","second compound 0.316 µM, first compound 3.16 µM",47.4%
same,"viability, T/C","second compound 0.316 µM, first compound 10 µM",29.8%
same,"viability, T/C",[7],106%
same,"viability, T/C",[8],104%
same,"viability, T/C","second compound 1 µM, first compound 0.316 µM",95%
same,"viability, T/C","second compound 1 µM, first compound 1 µM",86.1%
same,"viability, T/C","second compound 1 µM, first compound 3.16 µM",54.8%
same,"viability, T/C","second compound 1 µM, first compound 10 µM",31.9%
same,"viability, T/C",[9],105%
same,"viability, T/C",[10],107%
same,"viability, T/C","second compound 3.16 µM, first compound 0.316 µM",98.3%
same,"viability, T/C","second compound 3.16 µM, first compound 1 µM",79.6%
same,"viability, T/C","second compound 3.16 µM, first compound 3.16 µM",48.6%
same,"viability, T/C","second compound 3.16 µM, first compound 10 µM",26.8%
same,"viability, T/C",[11],106%
same,"viability, T/C",[12],93.9%
same,"viability, T/C","second compound 10 µM, first compound 0.316 µM",102%
same,"viability, T/C","second compound 10 µM, first compound 1 µM",76.7%
same,"viability, T/C","second compound 10 µM, first compound 3.16 µM",51.5%
same,"viability, T/C","second compound 10 µM, first compound 10 µM",26.7%
CC(C)n1nc(-c2ccc3oc(N)nc3c2)c2c(N)ncnc21 + CC(Nc1ncnc2nc[nH]c12)c1cc2cccc(Cl)c2c(=O)n1-c1ccccc1,IC50,second compound 0.0316 µM,> 100 nM
same,IC50,second compound 0.1 µM,> 100 nM
same,IC50,second compound 0.316 µM,> 100 nM
same,IC50,second compound 1 µM,> 100 nM
same,IC50,second compound 3.16 µM,> 100 nM
same,IC50,second compound 10 µM,> 100 nM
same,"viability, T/C","second compound 0.0316 µM, first compound 0.000316 µM",103%
same,"viability, T/C","second compound 0.0316 µM, first compound 0.001 µM",107%
same,"viability, T/C","second compound 0.0316 µM, first compound 0.00316 µM",105%
same,"viability, T/C","second compound 0.0316 µM, first compound 0.01 µM",104%
same,"viability, T/C",[1],108%
same,"viability, T/C",[2],77.9%
same,"viability, T/C","second compound 0.1 µM, first compound 0.000316 µM",111%
same,"viability, T/C","second compound 0.1 µM, first compound 0.001 µM",106%
same,"viability, T/C","second compound 0.1 µM, first compound 0.00316 µM",104%
same,"viability, T/C","second compound 0.1 µM, first compound 0.01 µM",99.1%
same,"viability, T/C",[3],107%
same,"viability, T/C",[4],81.5%
same,"viability, T/C","second compound 0.316 µM, first compound 0.000316 µM",98.2%
same,"viability, T/C","second compound 0.316 µM, first compound 0.001 µM",103%
same,"viability, T/C","second compound 0.316 µM, first compound 0.00316 µM",108%
same,"viability, T/C","second compound 0.316 µM, first compound 0.01 µM",109%
same,"viability, T/C",[5],115%
same,"viability, T/C",[6],74.8%
same,"viability, T/C","second compound 1 µM, first compound 0.000316 µM",97.4%
same,"viability, T/C","second compound 1 µM, first compound 0.001 µM",105%
same,"viability, T/C","second compound 1 µM, first compound 0.00316 µM",104%
same,"viability, T/C","second compound 1 µM, first compound 0.01 µM",107%
same,"viability, T/C",[7],105%
same,"viability, T/C",[8],72.3%
same,"viability, T/C","second compound 3.16 µM, first compound 0.000316 µM",109%
same,"viability, T/C","second compound 3.16 µM, first compound 0.001 µM",106%
same,"viability, T/C","second compound 3.16 µM, first compound 0.00316 µM",100%
same,"viability, T/C","second compound 3.16 µM, first compound 0.01 µM",96.2%
same,"viability, T/C",[9],100%
same,"viability, T/C",[10],72.4%
same,"viability, T/C","second compound 10 µM, first compound 0.000316 µM",107%
same,"viability, T/C","second compound 10 µM, first compound 0.001 µM",107%
same,"viability, T/C","second compound 10 µM, first compound 0.00316 µM",107%
same,"viability, T/C","second compound 10 µM, first compound 0.01 µM",104%
same,"viability, T/C",[11],103%
same,"viability, T/C",[12],63.5%

# Source: PubChem BioAssay AID1963979 (Molecular Pharmacology Branch, DTP, NCI, 2024)
